Laboratory results from patent publication US11472805B2, “Tricyclic compounds and their use as phosphodiesterase inhibitors” (Pfizer Inc., priority 2015, dated 2022).
pIC50: −log10 of the molar value. Like-named read-outs stand apart in the source and are kept apart here.

Key:
Type in all cases: biochemical
Human PDE4C1 = Human PDE4C1 (Homo sapiens (Human), UniProt Q08493); assay: PDE4C1 Scintillation Proximity Assay (SPA), inhibition of enzyme activity; details: read-out: Human PDE4C FL
Protocol: (§1) The PDE4A, PDE4B, PDE4C and PDE4D binding affinity for the compounds of the present invention was determined utilizing the following biological assay(s):
(§2) The recombinant Bacmid was isolated and used to transfect insect cells to generate a viral stock. To generate cell paste for purification, insect cells were infected with the virus stock and cells were harvested 72 hours after infection. Insect cell paste was lysed and after centrifugation, the supernatant was batch bound to Ni-NTA agarose (GE Healthcare) and eluted with 250 mM imidazole. This eluate was diluted with FLAG buffer (50 mM Tris HCL pH 7.5, 100 mM NaCl, 5% Glycerol, 1 mM TCEP with protease inhibitors) and batch bound to ant-FLAG M2 agarose (Sigma) overnight at 4° C. The agarose was packed into a column, washed with buffer and eluted with buffer containing elute using 250 ug/ml Flag-peptide. Fractions were analyzed using SDS-PAGE Coomassie blue staining and pooled based on purity. Pooled fractions were chromatographed on a S200 120 ml column (GE Healthcare) in 50 mM Tris HCL pH 7.5, 150 mM NaCl, 10% Glycerol, 2 mM TCEP with protease inhibitors. PDE4C1 fractions were analyzed by SDS-PAGE Coomassie blue staining, pooled based on purity, dialyzed against 50 mM Tris HCL pH 7.5, 100 mM NaCl, 20% Glycerol, 2 mM TCEP, frozen and stored at −80° C.
(§3) The PDE4A3, PDE4B1, PDE4C1 and PDE4D3 assays use the Scintillation Proximity Assay (SPA) technology to measure the inhibition of human recombinant PDE4A1, PDE4B3, PDE4C1, and PDE4D3 enzyme activity by compounds in vitro. The PDE4A1, PDE4B3, PDE4C1, and PDE4D3 assays are run in parallel using identical parameters, except for the concentration of enzyme ([…]). The assays are performed in a 384-well format with 50 uL assay buffer (50 mM TRIS pH7.5; 1.3 mM MgCl2; 0.01% Brij) containing enough PDE4A3, PDE4B1, PDE4C1, and PDE4D to convert ˜20% of substrate (1 μM cAMP consisting of 20 nM 3H-cAMP+[…] cold cAMP) and a range of inhibitors. Reactions are incubated for 30 min at 25° C. The addition of 20 uL of 8 mg/ml yitrium silicate SPA beads (Perkin Elmer) stops the reaction. The plates are sealed (TopSeal, Perkin Elmer) and the beads are allowed to settle for 8 hrs, after which they are read on the Trilux Microbeta overnight.

Human PDE4A3 = Human PDE4A3 (Homo sapiens (Human), UniProt P27815); assay: PDE4A3 Scintillation Proximity Assay (SPA), inhibition of enzyme activity; details: read-out: Human PDE4A FL
Protocol: as §1
as §2, with “PDE4A3” for “PDE4C1”
as §3

Human PDE4B1 = Human PDE4B1 (Homo sapiens (Human), UniProt Q07343, S133E/S654A/S659A/S661A); assay: PDE4B1 Scintillation Proximity Assay (SPA), inhibition of enzyme activity; details: read-out: Human PDE4B FL
Protocol: as §1
The recombinant Bacmid was isolated and used to transfect insect cells to generate a viral stock. To generate cell paste for purification, insect cells were infected with the virus stock and cells were harvested 72 hours after infection as described in Seeger, T. F. et al., Brain Research 985 (2003) 113-126. Insect cell paste was lysed and after centrifugation, the supernatant was chromatographed on Ni-NTA agarose (Qiagen) as described in Seeger, T. F. et al., Brain Research 985 (2003) 113-126. Ni-NTA agarose eluting fractions containing PDE4 were pooled, diluted with Q buffer A (20 mM Tris HCl pH 8, 5% glycerol, 1 mM TCEP) to reduce NaCl to ˜100 mM and loaded on a Source 15Q (GE Healthcare) column. After washing with Q buffer A/10% buffer B to baseline, PDE4D was eluted with a gradient from 10% to 60% of Buffer B (20 mM Tris HCl pH 8, 1 M NaCl, 5% glycerol, 1 mM TCEP). PDE4D fractions were analyzed by SDS-PAGE Coomassie blue staining, pooled based on purity, frozen and stored at −80° C.
as §3

human PDE4D3 = human PDE4D3 (Homo sapiens (Human), UniProt Q08499); assay: PDE4D3 Scintillation Proximity Assay (SPA), inhibition of enzyme activity; details: read-out: Human PDE4D FL
Protocol: as §1
A portion of the human PDE4D3 coding sequence (amino acids 50 to 672 from the sequence with accession number Q08499-2) was cloned into the baculovirus expression vector pFastBac (Invitrogen) engineered to include a C-terminal His6 affinity tag to aid in purification as described in Seeger, T. F. et al., Brain Research 985 (2003) 113-126. The recombinant Bacmid was isolated and used to transfect insect cells to generate a viral stock. To generate cell paste for purification, insect cells were infected and cells were harvested 72 hours after infection. Insect cell paste was lysed and after centrifugation, the supernatant was chromatographed on Ni-NTA agarose (Qiagen) as described in Seeger, T. F. et al., Brain Research 985 (2003) 113-126. Ni-NTA agarose eluting fractions containing PDE4 were pooled, diluted with Q Buffer A (50 mM Tris HCl pH 8, 4% glycerol, 100 mM NaCl, 1 mM TCEP, Protease inhibitors EDTA-free (Roche)) to reduce NaCl to ˜200 mM, and loaded on a Q Sepharose (GE Healthcare) column. After washing with Q buffer A to baseline, PDE4D was eluted with a gradient from 10% to 60% of Buffer B (50 mM Tris HCl pH 8, 1 M NaCl, 4% glycerol, 1 mM TCEP). PDE4D fractions were analyzed by SDS-PAGE Coomassie blue staining, pooled based on purity, frozen and stored at −80° C.
as §3

[1] = Table 9, geometric mean of 2-9 determinations unless otherwise indicated
[2] = Table 10, geometric mean of 2-9 determinations unless otherwise indicated

Sequence of Human PDE4B1 (Q07343 122-736 S133E/S654A/S659A/S661A): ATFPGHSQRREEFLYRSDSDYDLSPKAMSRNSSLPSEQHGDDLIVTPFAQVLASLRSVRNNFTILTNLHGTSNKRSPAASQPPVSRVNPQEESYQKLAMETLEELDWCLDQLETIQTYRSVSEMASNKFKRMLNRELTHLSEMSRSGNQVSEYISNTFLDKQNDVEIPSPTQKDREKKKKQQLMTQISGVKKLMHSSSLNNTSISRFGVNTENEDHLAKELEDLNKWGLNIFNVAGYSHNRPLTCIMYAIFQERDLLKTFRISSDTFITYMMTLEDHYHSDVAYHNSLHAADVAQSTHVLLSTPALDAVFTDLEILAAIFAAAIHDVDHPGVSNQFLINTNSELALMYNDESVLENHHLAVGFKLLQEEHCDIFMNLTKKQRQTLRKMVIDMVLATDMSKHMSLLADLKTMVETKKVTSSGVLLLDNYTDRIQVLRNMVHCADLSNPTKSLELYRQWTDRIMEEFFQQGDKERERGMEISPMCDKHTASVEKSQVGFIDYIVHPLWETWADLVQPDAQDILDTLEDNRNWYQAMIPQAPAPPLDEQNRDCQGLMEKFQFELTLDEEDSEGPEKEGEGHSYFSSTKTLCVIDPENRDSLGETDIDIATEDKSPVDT
Sequence of Human PDE4C1 (Q08493 2-712): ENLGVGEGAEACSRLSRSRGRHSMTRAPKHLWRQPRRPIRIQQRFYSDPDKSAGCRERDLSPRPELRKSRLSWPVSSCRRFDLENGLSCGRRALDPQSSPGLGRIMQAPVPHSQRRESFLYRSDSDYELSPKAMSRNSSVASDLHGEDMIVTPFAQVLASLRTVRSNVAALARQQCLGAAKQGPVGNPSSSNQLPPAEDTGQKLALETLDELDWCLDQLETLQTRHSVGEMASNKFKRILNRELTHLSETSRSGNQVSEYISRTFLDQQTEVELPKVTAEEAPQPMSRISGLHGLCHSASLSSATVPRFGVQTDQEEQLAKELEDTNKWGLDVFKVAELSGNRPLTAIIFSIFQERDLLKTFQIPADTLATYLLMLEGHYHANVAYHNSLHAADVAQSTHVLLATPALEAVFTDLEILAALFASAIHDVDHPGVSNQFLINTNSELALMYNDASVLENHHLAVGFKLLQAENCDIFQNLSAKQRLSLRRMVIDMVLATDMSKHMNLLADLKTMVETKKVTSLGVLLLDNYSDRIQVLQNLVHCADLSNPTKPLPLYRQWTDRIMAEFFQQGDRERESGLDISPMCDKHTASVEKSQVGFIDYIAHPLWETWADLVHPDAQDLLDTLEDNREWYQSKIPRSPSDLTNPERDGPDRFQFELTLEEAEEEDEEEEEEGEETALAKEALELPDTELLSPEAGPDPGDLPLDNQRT
Sequence of Human PDE4A3 (P27815 other isoform, or with tags, fused parts or gaps): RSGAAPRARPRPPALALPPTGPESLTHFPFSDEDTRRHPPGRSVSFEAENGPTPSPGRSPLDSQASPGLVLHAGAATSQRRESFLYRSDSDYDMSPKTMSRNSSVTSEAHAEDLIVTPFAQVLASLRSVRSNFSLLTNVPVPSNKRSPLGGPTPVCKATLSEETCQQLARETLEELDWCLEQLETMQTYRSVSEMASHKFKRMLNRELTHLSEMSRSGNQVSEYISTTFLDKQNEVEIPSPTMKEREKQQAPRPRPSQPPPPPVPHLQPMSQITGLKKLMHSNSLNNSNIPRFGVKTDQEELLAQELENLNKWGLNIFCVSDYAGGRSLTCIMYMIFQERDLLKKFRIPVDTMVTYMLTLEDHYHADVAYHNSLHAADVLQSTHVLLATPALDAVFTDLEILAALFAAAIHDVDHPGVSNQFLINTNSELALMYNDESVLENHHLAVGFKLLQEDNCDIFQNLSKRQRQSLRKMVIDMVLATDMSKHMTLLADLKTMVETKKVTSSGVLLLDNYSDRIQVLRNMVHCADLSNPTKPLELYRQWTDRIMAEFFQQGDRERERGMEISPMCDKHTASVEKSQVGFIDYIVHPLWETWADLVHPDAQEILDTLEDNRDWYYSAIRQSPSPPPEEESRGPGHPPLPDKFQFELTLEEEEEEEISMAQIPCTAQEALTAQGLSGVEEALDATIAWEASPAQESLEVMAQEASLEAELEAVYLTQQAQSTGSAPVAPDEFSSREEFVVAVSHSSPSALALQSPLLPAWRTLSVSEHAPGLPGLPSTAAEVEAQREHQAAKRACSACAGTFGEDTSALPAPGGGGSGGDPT
Sequence of human PDE4D3 (Q08499 186-808): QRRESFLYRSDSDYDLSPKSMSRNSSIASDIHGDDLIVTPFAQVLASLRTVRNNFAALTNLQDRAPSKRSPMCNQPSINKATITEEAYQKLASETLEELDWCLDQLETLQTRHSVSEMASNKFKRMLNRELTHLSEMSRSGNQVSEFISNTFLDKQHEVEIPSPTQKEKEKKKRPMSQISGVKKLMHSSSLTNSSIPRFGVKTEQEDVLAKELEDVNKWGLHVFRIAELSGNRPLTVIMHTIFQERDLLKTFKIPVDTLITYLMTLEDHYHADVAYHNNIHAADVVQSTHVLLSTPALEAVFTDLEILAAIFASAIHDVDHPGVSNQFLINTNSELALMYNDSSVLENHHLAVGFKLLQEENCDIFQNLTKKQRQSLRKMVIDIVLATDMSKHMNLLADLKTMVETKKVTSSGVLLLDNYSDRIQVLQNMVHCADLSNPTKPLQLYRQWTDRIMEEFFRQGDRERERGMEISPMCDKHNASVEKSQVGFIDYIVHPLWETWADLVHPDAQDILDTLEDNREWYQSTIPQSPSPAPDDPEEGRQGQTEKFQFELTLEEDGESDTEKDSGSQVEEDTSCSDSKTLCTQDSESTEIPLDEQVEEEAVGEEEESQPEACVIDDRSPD

| Structure (SMILES) | pIC50 (Human PDE4C1; [1]) | pIC50 (Human PDE4A3; [1]) | pIC50 (Human PDE4B1; [1]) | pIC50 (human PDE4D3; [1]) | pIC50 (Human PDE4C1; [2]) | pIC50 (Human PDE4A3; [2]) | pIC50 (Human PDE4B1; [2]) | pIC50 (human PDE4D3; [2]) |
| --- | --- | --- | --- | --- | --- | --- | --- | --- |
| O=C1c2c(-c3cc(F)c(F)c(F)c3)c3ncccc3n2CCN1C1CC1 [Example 40, 8-Cyclopropyl-10-(3,4,5-trifluorophenyl)-7,8-dihydropyrido[2′,3′:4,5]pyrrolo[1,2-a]pyrazin-9(6H)-one] | 8.36 | > 9.39 | > 9.17 | 7.76 |  |  |  |  |
| Cc1ccc(-c2c3ncccc3n3ccn(C4CC4)c(=O)c23)c(C)c1 [Example 66, 8-Cyclopropyl-10-(2,4-dimethyl-phenyl)pyrido[2′,3′:4,5]pyrrolo[1,2-a]pyrazin-9(8H)-one] | 7.78 | 8.27 | 8.16 | 6.34 |  |  |  |  |
| O=C1c2c(-c3ccc(F)cc3F)c3ncccc3n2CCN1C1CC1 [Example 38, 8-Cyclopropyl-10-(2,4-difluorophenyl)-7,8-dihydropyrido[2′,3′:4,5]pyrrolo[1,2-a]pyrazin-9(6H)-one] | 7.68 | 8.25 | 7.96 | 6.24 |  |  |  |  |
| O=C1c2c(-c3ccc(F)c(Cl)c3)c3ncccc3n2CCN1C1CC1 [Example 36, 10-(3-Chloro-4-fluorophenyl)-8-cyclopropyl-7,8-dihydropyrido[2′,3′:4,5]pyrrolo[1,2-a]pyrazin-9(6H)-one] | 8.46 | > 9.17 | > 8.96 | 7.55 |  |  |  |  |
| O=C1c2c(-c3ccccc3)c3ncccc3n2CCN1C1CC1 [Example 42, 8-Cyclopropyl-10-phenyl-7,8-dihydropyrido[2′,3′:4,5]pyrrolo[1,2-a]pyrazin-9(6H)-one] | 7.27 | 7.91 | 7.63 | 5.98 |  |  |  |  |
| Cc1cccnc1-c1c2n(c3cccnc13)CCN(C1CC1)C2=O [Example 84, 8-Cyclopropyl-10-(3-methylpyridin-2-yl)-7,8-dihydropyrido[2′,3′:4,5]pyrrolo[1,2-a]pyrazin-9(6H)-one] |  |  |  |  | < 4.52 | 4.81 | < 4.59 | < 4.52 |
| Cn1cc(-c2c3n(c4cccnc24)CCN(C2CC2)C3=O)cn1 [Example 91, 8-Cyclopropyl-10-(1-methyl-1H-pyrazol-4-yl)-7,8-dihydropyrido[2′,3′:4,5]pyrrolo[1,2-a]pyrazin-9(6H)-one] |  |  |  |  | 5.63 | 6.05 | 5.56 | 5.35 |
| COc1c(F)cc(-c2c3n(c4nccnc24)CCN(C2CC2)C3=O)cc1F [Example 59, 8-Cyclopropyl-10-(3,5-difluoro-4-methoxyphenyl)-7,8-dihydropyrrolo[1,2-a:4,5-b′]dipyrazin-9(6H)-one] | 7.06 | 7.90 | 8.01 | 6.54 |  |  |  |  |
| O=C1c2c(-c3ccc(Cl)cc3)c3ncccc3n2CCN1c1ncccn1 [Example 1, 10-(4-Chlorophenyl)-8-(pyrimidin-2-yl)-7,8-dihydropyrido[2′,3′:4,5]pyrrolo[1,2-a]pyrazin-9(6H)-one] | 6.74 | 7.73 | 7.79 | 5.91 |  |  |  |  |
| O=C1c2c(-c3ccc(Cl)cc3)c3ncccc3n2CC2COCCN12 (stereo not drawn) [Example 63, 13-(4-Chlorophenyl)-6a,7,9,10-tetrahydro-6H,12H-pyrido[2″,3″:4′,5′]pyrrolo[1′,2′:4,5]pyrazino[2,1-c][1,4]oxazin-12-one] | 6.14 | 6.66 | 7.49 | 5.87 |  |  |  |  |
| O=C1c2c(-c3ccc(Cl)c(F)c3)c3nccnc3n2CCN1C1CC1 [Example 8, 10-(4-Chloro-3-fluorophenyl)-8-cyclopropyl-7,8-dihydropyrrolo[1,2-a:4,5-b′]dipyrazin-9(6H)-one] | 7.86 | 8.92 | > 8.90 | 7.05 |  |  |  |  |
| Cc1nc(-c2c3n(c4cccnc24)CCN(C2CC2)C3=O)cs1 [Example 88, 8-Cyclopropyl-10-(2-methylthiazol-4-yl)-7,8-dihydropyrido[2′,3′:4,5]pyrrolo[1,2-a]pyrazin-9(6H)-one] |  |  |  |  | 5.07 | 5.09 | 4.96 | 4.79 |
| N#Cc1cc(-c2c3n(c4cccnc24)CCN(C2CC2)C3=O)ccc1Cl [Example 34, 2-Chloro-5-(8-cyclopropyl-9-oxo-6,7,8,9-tetrahydropyrido[2′,3′:4,5]pyrrolo[1,2-a]pyrazin-10-yl)benzonitrile] | 8.54 | 9.01 | > 9.19 | 7.63 |  |  |  |  |
| O=C1c2c(-c3ccc(Cl)cc3)c3ncccc3n2CC2CCN12 (single isomer, unassigned) [Example 68] | 7.59 | 7.59 | 7.73 | 6.27 |  |  |  |  |
| C[C@H]1Cn2c(c(-c3ccc(Cl)cc3)c3ncccc32)C(=O)N1C1CC1 [Example 11, (7S)-10-(4-Chlorophenyl)-8-cyclopropyl-7-methyl-7,8-dihydropyrido[2′,3′: 4,5]pyrrolo[1,2-a]pyrazin-9(6H)-one] | > 9.24 | > 9.52 | > 9.28 | 7.54 |  |  |  |  |
